Patent US12459891B2, “1-[1-(4-benzyloxy-3,5-difluoro-benzoyl)-4-fluoro-pyrrolidine-2-carbonyl]-pyrrolidine-2-carbonitrile” (ACCURE THERAPEUTICS, S.L., priority 2020, dated 2025)

Key:
[1] = Parallel artificial membrane permeability assay (PAMPA), BBB passive diffusion; type: in vitro ADME; conditions: pH 7.4, 4 hours; for % R (compound retention of the phospholipid membrane), PAMPA / % T (percentage of transport), PAMPA: 200 μM; for Papp at 4 h, 200 μM: pig, PAMPA, room temperature, read-out: Effective permeability Pe
Procedure: Parallel artificial membrane permeability assay (PAMPA) described in Kansy M et al., J. Med. Chem. 1998; 41(7):1007-10 was used to determine the capacity of compounds to cross the Blood-Brain Barrier (BBB) by passive diffusion (Di L et al., Eur. J. Med. Chem. 2003; 38(3):223-32). The effective permeability (Pe) of the compounds was measured at an initial concentration of 200 μM. The buffer solution was prepared from a commercial concentrated one following the manufacturer's instructions. pH was adjusted to 7.4 using a 0.5 M NaOH solution. A stock solution of new compound was prepared in DMSO and diluted with buffer solution to a final 200 μM concentration (0.5% DMSO content). The PAMPA sandwich was separated and each donor well was filled with 200 μL of the compound solution. The acceptor plate was placed into the donor plate, ensuring that the underside of the membrane was in contact with buffer. 4 μL of the mixture of phospholipids (20 mg/mL) in dodecane was added to the filter of each well, and 200 μL of buffer solution was added to the each acceptor well. The plate was covered and incubated at room temperature in a saturated humidity atmosphere for 4 hours under orbital agitation at 100 rpm. After 4 hours, the contents of the acceptor and donor compartments were analyzed by HPLC: 150 μL of each well from the donor plate and 150 μL of each well from the acceptor plate were transferred to HPLC vials, injecting each sample into a reverse-phase C18 column (150 mm×4.6 mm×5 μm, 100 Å) (100 μL/injection from the acceptor wells, 10 μL/injection from the donor wells and for t0 references). Transport was also confirmed by MALDI-TOF spectrometry.
The phospholipid mixture used was a porcine polar brain lipid extract, provided by Avanti polar lipids, with the following composition: 12.6% phosphatidylcholine (PC), 33.1% phosphatidylethanolamine (PE), 18.5% phosphatidylserine (PS), 4.1% phosphatidylinositol (PI), 0.8% phosphatidic acid and 30.9% of other compounds.
The effective permeability (Pe) after 4 hours was calculated using equation 2, the percentage of transport (T %) was calculated using equation 3 and the compound retention (R %) of the phospholipid membrane using equation 4:
[formula] [formula] [formula] wherein: • t is time (h) • CA(t) is the compound concentration in the acceptor well at time t, CD(t) is the compound concentration in donor well at time t • and CD(t0) is the compound concentration in the donor well at t0.

[2] = Microsomal stability (rat); type: in vitro ADME; conditions: Sprague-Dawley, pooled liver microsomes, pH 7.4; rat liver microsomes 0.5 mg/mL, 1 μM compound, 37° C., NADPH regenerating system
Procedure: The stability of the compounds in rat (Sprague-Dawley) pooled liver microsomes (catalog number 452501) was investigated according to the instructions provided by the vendor (BD Bioscience). A stock solution (500 μM) of the compound to be tested was prepared in DMSO. Two μL of the compounds were incubated at 1 μM final concentration in a mixture of: • 713 μL of H2O • 200 μL of 0.5 M potassium phosphate (pH 7.4) • 50 μL of NADPH regenerating system solution A (BD Bioscience, catalog number 451220) • 10 μL of NADPH regenerating system solution B (BD Bioscience, catalog number 451200)
The resulting mixture was warmed to 37° C. for 5 min. After which, 25 μL of liver microsomes were added at a final concentration of 0.5 mg/mL. The mixture was incubated at 37° C. with orbital agitation (100 rpm). At selected time points, 100 μL aliquots were extracted and mixed with 100 μL of acetonitrile. The obtained precipitate was shake in a vortex for 1 minute. Samples were kept at 4° C. for 30 min, after which, samples were centrifuged at 20,000×g at 4° C. for 30 min. The supernatant was filtered out and subsequently analysed by UPLC-MS. All stability tests were performed in duplicates.

[3] = PK in mice after intravenous bolus; type: in vivo; conditions: male, Swiss Albino, mouse, plasma, 1 mg/kg intravenous bolus; for Vd: read-out: Vss
Procedure: The pharmacokinetics of the compounds following intravenous bolus administration was conducted in male Swiss Albino mice. The study was conducted in accordance with the guidelines of the Institutional Animal Ethics Committee (IAEC) and in accordance with the requirements of Committee for the Purpose of Control and Supervision of Experiments on Animals (CPCSEA), India.
Study was conducted in 12 mice per compound using sparse sampling design (n=3/time point) to produce composite profile. The compounds were dissolved in 2% Twee80® in saline (0.9 NaCl) at a concentration of 0.5 mg/mL. Mice were administered a single dose of 1 mg/kg of the compound solution by intravenous bolus through lateral tail vein using 1 mL BD syringe guided with 26G needle at a dose volume of 2 mL/kg.
Blood samples were collected (n=3 per time point) at 0.083, 0.25, 0.5, 1, 2, 4, 6, 8, 24 and 48 h post-dose. At each time point, 120 μL of blood was collected by retro orbital plexus puncture and transferred into a labeled microfuge tube containing 200 mM K2EDTA solution (20 μL per mL of blood). The blood samples were centrifuged at 5000×g for 5 min at 4±2° C. Plasma samples were stored below −60° C. until bioanalysis.
Plasma samples were analyzed using a LC-MS/MS method with LLOQ of 1.06 ng/mL. Pharmacokinetic parameters in plasma were calculated using the non-compartmental analysis tool of the validated Phoenix WinNonlin® software (version 6.3). The area under the concentration time curve (AUClast) was calculated by linear trapezoidal rule. Peak plasma concentration (Cmax) and time to reach the peak plasma concentration (Tmax) were the observed values. Clearance (CL) and volume of distribution (Vss) were predicted values.

| % R (compound retention of the phospholipid membrane), PAMPA [1] [%] | % T (percentage of transport), PAMPA [1] [%] | Papp at 4 h, 200 μM [1] [×10⁻⁶ cm/s] | half-life at 1 μM [2] [min] | AUC(0-t) [3] [ng·h/mL] | clearance [3] [mL/min/kg] | Vd [3] [L/kg] | SMILES |
| --- | --- | --- | --- | --- | --- | --- | --- |
| 10.93 | 29.92 | 22.1 | < 5 | 131 | 126 | 0.64 | COc1cc(C(=O)N2CC(F)(F)C[C@H]2C(=O)N2CCC[C@H]2C#N)cc(OC)c1OCc1ccccc1 [Comp Ex. 3, (S)-1-((2S)-1-(4-(benzyloxy)-3,5-dimethoxybenzoyl)-4,4-difluoropyrrolidine-2-carbonyl)pyrrolidine-2-carbonitrile] |
|  | 10.43 |  | < 5 | 22.7 | 697 | 9.06 | N#C[C@@H]1CCCN1C(=O)[C@@H]1CC(F)(F)CN1C(=O)c1ccc(OCc2ccccc2)c(F)c1 [Comp Ex. 4, (S)-1-((S)-1-(4-(benzyloxy)-3-fluorobenzoyl)-4,4-difluoropyrrolidine-2-carbonyl) pyrrolidine-2-carbonitrile] |
| 24 | 18.1 | 4.7 | 12 | 127 | 99.6 | 1.19 | N#C[C@@H]1CCCN1C(=O)[C@@H]1C[C@@H](F)CN1C(=O)c1cc(F)c(OCc2ccccc2)c(F)c1 [Example 1, (S)-1-((2S,4R)-1-(4-(benzyloxy)-3,5-difluorobenzoyl)-4-fluoropyrrolidine-2-carbonyl)pyrrolidine-2-carbonitrile] |
